The record followed here is PMC7592913, “PE homeostasis rebalanced through mitochondria-ER lipid exchange prevents retinal degeneration in Drosophila” (PLoS Genetics, 2020).

The target of this assay is T1, PECT (Drosophila melanogaster, UniProt Q9VK25).
T1 construct: pect cDNA in pMAL, N-terminal MBP fusion (tag kept), E. coli BL21 (DE3), amylose column
The assay can be described thus: LC-MS (SRM) detection of CDP-ethanolamine product. The assay is classed as biochemical. The conditions noted are these: 1 mM phosphoethanolamine, 2 mM CTP, 10 mM MgCl2, 1 mM DTT, 1 uM MBP-PECT, pH 7.7, 37 °C, 15 min.

T1 sequence (Q9VK25 1-393): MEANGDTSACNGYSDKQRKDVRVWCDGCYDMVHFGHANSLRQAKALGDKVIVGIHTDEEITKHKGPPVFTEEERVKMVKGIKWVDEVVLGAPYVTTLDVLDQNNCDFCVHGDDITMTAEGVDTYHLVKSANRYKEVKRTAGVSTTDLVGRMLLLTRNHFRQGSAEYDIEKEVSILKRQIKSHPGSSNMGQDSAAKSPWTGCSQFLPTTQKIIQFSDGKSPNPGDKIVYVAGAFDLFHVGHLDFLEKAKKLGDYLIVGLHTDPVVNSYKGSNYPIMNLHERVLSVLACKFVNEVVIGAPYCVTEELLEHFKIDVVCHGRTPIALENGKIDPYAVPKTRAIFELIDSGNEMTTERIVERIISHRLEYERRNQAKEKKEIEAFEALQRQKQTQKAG

On to `Nc1ccn([C@@H]2O[C@H](COP(=O)(O)OP(=O)(O)OP(=O)(O)O)[C@@H](O)[C@H]2O)c(=O)n1` [CTP], for which the “LC-MS (SRM) detection of CDP-ethanolamine product” value is “CDP-ethanolamine was detected by the mass spectrum after incubating phosphoethanolamine and CTP with PECT”.

For `NCCOP(=O)(O)O` [phosphoethanolamine], the “LC-MS (SRM) detection of CDP-ethanolamine product” value is “CDP-ethanolamine was detected by the mass spectrum after incubating phosphoethanolamine and CTP with PECT”.
